Reference: patent US4260682A, “High sensitivity assays for angiotensin converting enzyme” (priority 1979, dated 1981)
Peptide text beside a SMILES is read from it. * marks the point of attachment. Bz = O=C(c1ccccc1)*

How the values were obtained:
ACE [1] = experiment: pH dependence of ACE activity; type: biochemical
Description: (§1) The enzyme is active over a broad pH range with a maximum around pH 8.0, but is at least about 50% active in the range pH 7.0-pH 8.8, for both HipHisLeu and benzoylPheAlaPro. Although the enzyme is active in a variety of buffer systems known in the art, it is preferred for convenience, when using benzoylPheAlaPro as substrate, to conduct the assays in 0.05 M Hepes buffer, pH 8.0 containing 0.15 M sodium chloride. Detailed protocols for carrying out the assay are given in the examples. […] The preferred concentration range is 1×10^-9 M to 7×10^- 5 M.

ACE from rabbit lung = details: sodium chloride removed from reaction medium; cited from earlier work
ACE [2] = experiment: Sulfate and chloride effects on ACE catalysed hydrolysis (general description); type: biochemical; details: sulfate present
Description: An assay for ACE, using HipHisLeu as substrate, is herewith described. The assay is more sensitive than any heretofore disclosed using HipHisLeu as substrate. Maximum sensitivity is achieved by the inclusion of sulfate ions, preferably as sodium sulfate, in the reaction mixture. When 0.1 M NaCl is present in the reaction mixture, sulfate ions are stimulatory from 0.1 M to at least 1.1 M. Maximum stimulation occurs in the range from 0.75 M to 1.1 M Na2 SO4.
An even more sensitive assay for ACE activity has been developed using the novel compound ^3 H-benzoylPheAlaPro as substrate. This new substrate can be used to assay ACE in human urine in incubations as short as 15 minutes. The response of this substrate to ions is strikingly different from the response of HipHisLeu. […] This difficulty has been solved by the proper choice of extracting solvent. While a variety of organic solvents may be suitable for the extraction step, it is preferred to employ toluene. Approximately 88% of ^3 H-benzoylPhe enters the toluene phase while only 6% of the unhydrolyzed substrate enters the toluene phase, when toluene and the acidified reaction mixture are in approximately equal volumes at room temperatures.
as §1

Guinea pig serum ACE = target: T1, Guinea pig serum ACE (Cavia porcellus, UniProt H0UWL7); experiment: Kinetics of (sulfate-stimulated) HipHisLeu hydrolysis; type: biochemical; details: for 1/V / V (reaction velocity): 0.1 M NaCl; for V (reaction velocity): 0.75 M Na2 SO4, pH 8.0, 37° C.
T1 sequence (H0UWL7 33-1234): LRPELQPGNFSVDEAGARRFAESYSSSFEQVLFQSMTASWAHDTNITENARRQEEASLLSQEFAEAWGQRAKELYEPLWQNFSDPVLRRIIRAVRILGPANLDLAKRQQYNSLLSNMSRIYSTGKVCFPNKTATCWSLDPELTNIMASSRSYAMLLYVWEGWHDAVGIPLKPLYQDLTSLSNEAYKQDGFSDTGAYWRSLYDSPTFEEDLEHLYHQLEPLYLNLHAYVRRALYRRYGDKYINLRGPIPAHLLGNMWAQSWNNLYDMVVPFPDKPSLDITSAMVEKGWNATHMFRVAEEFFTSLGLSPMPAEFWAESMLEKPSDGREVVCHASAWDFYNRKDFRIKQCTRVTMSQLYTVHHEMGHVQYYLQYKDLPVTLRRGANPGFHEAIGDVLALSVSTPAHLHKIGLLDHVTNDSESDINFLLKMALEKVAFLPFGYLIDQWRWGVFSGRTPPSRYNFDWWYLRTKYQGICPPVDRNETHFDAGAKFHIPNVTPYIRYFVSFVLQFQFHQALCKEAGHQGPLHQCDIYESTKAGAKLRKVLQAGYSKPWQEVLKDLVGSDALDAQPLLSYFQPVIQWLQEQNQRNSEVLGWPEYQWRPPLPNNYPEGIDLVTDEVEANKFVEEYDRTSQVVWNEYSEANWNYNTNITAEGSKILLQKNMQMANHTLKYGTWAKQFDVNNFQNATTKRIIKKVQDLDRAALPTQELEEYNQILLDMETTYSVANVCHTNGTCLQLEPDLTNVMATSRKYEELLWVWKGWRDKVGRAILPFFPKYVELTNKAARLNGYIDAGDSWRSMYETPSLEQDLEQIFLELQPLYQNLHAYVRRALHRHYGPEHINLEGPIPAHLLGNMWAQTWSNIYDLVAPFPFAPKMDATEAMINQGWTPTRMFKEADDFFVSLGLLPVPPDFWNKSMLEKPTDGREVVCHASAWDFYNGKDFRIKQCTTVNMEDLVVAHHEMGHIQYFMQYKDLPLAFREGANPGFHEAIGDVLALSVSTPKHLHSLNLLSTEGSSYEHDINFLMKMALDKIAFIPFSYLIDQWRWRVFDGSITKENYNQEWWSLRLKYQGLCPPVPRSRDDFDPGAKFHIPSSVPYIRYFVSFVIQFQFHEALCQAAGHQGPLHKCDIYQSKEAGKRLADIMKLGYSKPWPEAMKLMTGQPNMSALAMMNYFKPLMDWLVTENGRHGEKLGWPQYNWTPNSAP
Experimental: Kinetics of Sulfate-Stimulated HipHisLeu Hydrolysis
In each assay, 50 μl of Guinea pig serum diluted 1-20 (v/v) in the reaction buffer was mixed with 50 μl of buffer containing sufficient ^3 H-HipHisLeu to provide approximately 100,000 cpm total, together with sufficient unlabeled HipHisLeu to produce the desired substrate concentrations, as indicated in Table 2. […] The reaction mixture was then extracted with 1 ml ethyl acetate. 500 μl of the ethyl acetate fraction was sampled and counted in a scintillation counter.

CC(C)C[C@H](NC(=O)[C@H](Cc1c[nH]cn1)NC(=O)CNC(=O)c1ccccc1)C(=O)O [HipHisLeu] (Bz-Gly-His-Leu-OH)
pH of maximum activity (ACE [1]): ~8.0 pH
activity of enzyme (relative to maximum) (ACE [1]; range pH 7.0-pH 8.8): at least 50%
inhibition on removal of sodium chloride (ACE from rabbit lung): 92%
dependence of hydrolysis on added chloride (ACE [2]): can be carried out in the absence of added chloride, if sulfate is present
Vmax (Guinea pig serum ACE; 0.05 M Hepes, pH 8.0, 0.1 M NaCl, 0.75 M Na2 SO4, serum diluted 1-20): 5.59 nmol/min/mL
reduction of Km (Guinea pig serum ACE; 0.75 M Na2 SO4 in reaction mixture containing 0.1 M NaCl): about 15 fold
1/V (Guinea pig serum ACE; HipHisLeu 0.01 mM, 0.75 M Na2 SO4): 3.33 nmole^-1 · min .multi
V (reaction velocity) (Guinea pig serum ACE; HipHisLeu 0.01 mM): 0.30 nmol/min/mL
1/V (Guinea pig serum ACE; HipHisLeu 0.02 mM, 0.75 M Na2 SO4): 1.92 nmole^-1 · min .multi
V (reaction velocity) (Guinea pig serum ACE; HipHisLeu 0.02 mM): 0.52 nmol/min/mL
1/V (Guinea pig serum ACE; HipHisLeu 0.03 mM, 0.75 M Na2 SO4): 1.35 nmole^-1 · min .multi
V (reaction velocity) (Guinea pig serum ACE; HipHisLeu 0.03 mM): 0.74 nmol/min/mL
1/V (Guinea pig serum ACE; HipHisLeu 0.04 mM, 0.75 M Na2 SO4): 0.78 nmole^-1 · min .multi
V (reaction velocity) (Guinea pig serum ACE; HipHisLeu 0.04 mM): 1.28 nmol/min/mL
1/V (Guinea pig serum ACE; HipHisLeu 0.05 mM, 0.75 M Na2 SO4): 0.88 nmole^-1 · min .multi
V (reaction velocity) (Guinea pig serum ACE; HipHisLeu 0.05 mM): 1.14 nmol/min/mL
1/V (Guinea pig serum ACE; HipHisLeu 0.06 mM, 0.75 M Na2 SO4): 0.78 nmole^-1 · min .multi
V (reaction velocity) (Guinea pig serum ACE; HipHisLeu 0.06 mM): 1.28 nmol/min/mL
1/V (Guinea pig serum ACE; HipHisLeu 0.07 mM, 0.75 M Na2 SO4): 0.47 nmole^-1 · min .multi
V (reaction velocity) (Guinea pig serum ACE; HipHisLeu 0.07 mM): 2.14 nmol/min/mL
1/V (Guinea pig serum ACE; HipHisLeu 0.08 mM, 0.75 M Na2 SO4): 0.57 nmole^-1 · min .multi
V (reaction velocity) (Guinea pig serum ACE; HipHisLeu 0.08 mM): 1.76 nmol/min/mL
decrease in Km (Guinea pig serum ACE; sulfate ion 0.75-1.1 M vs. without): 14 fold
